According to BigSolDB 2.1:

NC(N)=C([N+](=O)[O-])[N+](=O)[O-]
solubility (mole fraction)
Settings | 293.15 K | 303.15 K | 313.15 K | 323.15 K | 333.15 K | 343.15 K | 353.15 K | 363.15 K
in DMF | 0.0918 | 0.102 | 0.11 | 0.119 | 0.129 | 0.137 | 0.148 | 0.162
in DMSO | 0.183 | 0.191 | 0.199 | 0.207 | 0.217 | 0.229 | 0.242 | 0.254
in NMP | 0.168 | 0.178 | 0.184 | 0.194 | 0.203 | 0.214 | 0.227 | 0.24
